From ChEMBL document CHEMBL1150831, “Immunosuppressive sesquiterpene alkaloids from Tripterygium wilfordii” (2001) come the findings set out here.

Activity calls are given as the source filed them. The calls are words filed in the database; no cut-off is given here.

Common to all, as to assay type: functional
Assay [1] relates to PBMC. The assay can be described thus: Immunosuppressive activity in human PBMC assessed as inhibition of LPS-stimulated IL8 production at 0.3 ug/mL after 18 to 24 hrs by ELISA.
Assay [2] concerns PBMC. In words: Immunosuppressive activity in human PBMC assessed as inhibition of LPS-stimulated IL2 production at 0.3 ug/mL after 18 to 24 hrs by ELISA.
The test system of assay [3] is PBMC. In words: Immunosuppressive activity in human PBMC assessed as inhibition of LPS-stimulated IL4 production at 0.3 ug/mL after 18 to 24 hrs by ELISA. (ELISA stands for enzyme-linked immunosorbent assay.)
The subject of assay [4] is PBMC. The assay can be described thus: Immunosuppressive activity in human PBMC assessed as inhibition of LPS-stimulated TNFalpha production at 0.3 ug/mL after 18 to 24 hrs by ELISA.
In assay [5] the test system is PBMC. The assay can be described thus: Immunosuppressive activity in human PBMC assessed as inhibition of LPS-stimulated IFN-gamma production at 0.3 ug/mL after 18 to 24 hrs by ELISA.
Assay [6] concerns PBMC. In words: Immunosuppressive activity in human PBMC assessed as inhibition of LPS-stimulated IL1-beta production at 0.3 ug/mL after 18 to 24 hrs by ELISA.
Assay [7] has as its system PBMC. In words: Immunosuppressive activity in human PBMC assessed as inhibition of LPS-stimulated TNFalpha production at 10 ug/mL after 18 to 24 hrs by ELISA.
Assay [8] concerns PBMC. The assay can be described thus: Immunosuppressive activity in human PBMC assessed as inhibition of LPS-stimulated IL8 production at 10 ug/mL after 18 to 24 hrs by ELISA.
Assay [9] relates to PBMC. In words: Immunosuppressive activity in human PBMC assessed as inhibition of LPS-stimulated IFN-gamma production at 10 ug/mL after 18 to 24 hrs by ELISA.
Assay [10] relates to PBMC. In words: Immunosuppressive activity in human PBMC assessed as inhibition of LPS-stimulated IL2 production at 10 ug/mL after 18 to 24 hrs by ELISA.
In assay [11] the test system is PBMC. In words: Immunosuppressive activity in human PBMC assessed as inhibition of LPS-stimulated IL4 production at 10 ug/mL after 18 to 24 hrs by ELISA.
The test system of assay [12] is PBMC. The assay can be described thus: Immunosuppressive activity in human PBMC assessed as inhibition of LPS-stimulated IL1-beta production at 10 ug/mL after 18 to 24 hrs by ELISA.

One may read the inhibition as the relative decrease from the control value, in per cent. For `C[C@]12C=CC(=O)C=C1CC[C@@H]1[C@@H]2[C@@H](O)C[C@@]2(C)[C@H]1CC[C@]2(O)C(=O)CO` [PREDNISOLONE], the inhibition at 0.3 µg/mL worked out at 15% with PBMC [1]; 65% with PBMC [2]; 76% in the assay on PBMC [3]; 52% in the assay on PBMC [4]; 75% with PBMC [5]; 68% in the assay with PBMC [6].

Take `CC(=O)OC[C@]12[C@H](OC(C)=O)[C@H](OC(C)=O)[C@@H]3[C@@H](OC(C)=O)[C@@]14O[C@@]3(C)COC(=O)c1cccnc1CC[C@@](C)(O)C(=O)O[C@@H]([C@H](OC(=O)c1ccccc1)[C@@H]2OC(C)=O)[C@]4(C)O`: the inhibition at 10 µg/mL in the assay on PBMC [7] is 2%; in the assay on PBMC [8], 8%; in the assay on PBMC [9], 4%; with PBMC [10], 35%; with PBMC [11], 50%; in the assay with PBMC [12], -6%.

Turning to `COC(=O)C[C@@H]1C(=O)CCC(C)C(=O)O[C@@H]2[C@@H]3[C@@H](OC(C)=O)[C@@]45O[C@@]3(C)COC(=O)c3cccnc3C(C)C(C)C(=O)O[C@@H]([C@H](OC(C)=O)[C@H](OC(C)=O)[C@@]4(COC1=O)[C@@H]2OC(C)=O)[C@]5(C)O` (stereo not given in full) [TRIPTONINE A], the inhibition at 10 µg/mL in the assay with PBMC [7] was 62%; with PBMC [8], 43%; in the assay with PBMC [9], 17%; with PBMC [10], 33%; with PBMC [11], -20%; in the assay with PBMC [12], 55%.

For `CC(=O)OC[C@]12[C@H](OC(C)=O)[C@H](OC(=O)c3cccnc3)[C@@H]3[C@@H](OC(C)=O)[C@@]14O[C@@]3(C)COC(=O)c1cccnc1C(C)C(C)C(=O)O[C@@H]([C@H](OC(C)=O)[C@@H]2OC(C)=O)[C@]4(C)O` (stereo not given in full), the inhibition result in the assay with PBMC [7], with PBMC [8], in the assay with PBMC [9], in the assay on PBMC [10], in the assay with PBMC [11] and with PBMC [12] was “inactive” throughout.

For `CC(=O)OC[C@]12[C@H](OC(C)=O)[C@H](OC(C)=O)[C@@H]3[C@@H](OC(=O)c4ccccc4)[C@@]14O[C@@]3(C)COC(=O)c1cccnc1C(C)C(C)C(=O)O[C@@H]([C@H](OC(C)=O)[C@@H]2OC(C)=O)[C@]4(C)O` (stereo not given in full), the inhibition at 10 µg/mL was 37% with PBMC [7]; 84% in the assay on PBMC [8]; 99% in the assay with PBMC [9]; 100% in the assay on PBMC [10]; 100% in the assay with PBMC [11]; 43% with PBMC [12].
